One series addresses T1, MGL (Rattus norvegicus, UniProt Q8R431).
T1 sequence (Q8R431 1-303): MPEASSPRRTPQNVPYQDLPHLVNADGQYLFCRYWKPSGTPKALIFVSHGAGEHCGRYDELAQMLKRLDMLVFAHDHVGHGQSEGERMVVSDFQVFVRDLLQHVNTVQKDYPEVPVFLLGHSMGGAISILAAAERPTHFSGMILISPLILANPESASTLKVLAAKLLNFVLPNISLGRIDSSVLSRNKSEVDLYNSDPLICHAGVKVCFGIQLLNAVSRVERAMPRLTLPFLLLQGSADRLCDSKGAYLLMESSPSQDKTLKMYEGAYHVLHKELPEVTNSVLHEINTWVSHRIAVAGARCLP
The note with it: 100 µM.

The melting point is the temperature, or range, at which the solid turns liquid. Broadly, the inhibition is the relative decrease from the control value, in per cent.

Structures are written as SMILES.

Procedure for MGL: The percentage of inhibition describes the percentage by which the inhibitor reduces the velocity/rate of 2-AG hydrolysis by MGL. […] The Ki value is the affinity constant and describes the affinity of the inhibitor for the MGL.
These rat brains are homogenized in 5 volumes of ice-cold buffer (0.32 M sucrose, 10 mM Tris base, 5 mM EDTA, pH 7.4) then centrifuged at 17400 g for 30 min. The supernatant was further centrifuged at 124,000 g for 90 min. The supernatant from the last certifugation step (cytosol fraction) is resuspended in TME buffer (25 mM Tris base, 5 mM MgCl2, 1 mM EDTA, pH 7.4) for the MGL preparation. Aliquots (1 ml) from the preparation are flash frozen in liquid nitrogen and stored at −80° C. until used. Protein concentration of the enzyme suspension is determined using the BioRad protein assay kit. […]
Again the reaction mixture is treated in the same manner as described above and the concentrations of 2-AG and AA are calculated using external standards. Percent inhibition is calculated using the following equation: […]
where (AA20−AA0)c is the amount of arachidonic acid formed over 20 min from 2-AG with the inhibitor present and (AA20−AA0)s is the amount of arachidonic acid formed over 20 min from 2-AG when the inhibitor is not present. […] The reaction mixtures are treated as described above and the amount of AA formed was calculated. […]

With `O=S(=O)(F)CCCCCc1ccc(O)cc1` [Compound 14.4, 5-(4-Hydroxy-phenyl)-pentanesulfonyl fluoride], the melting point lay within 32 to 35 °C.

On MGL, `CCOC(=O)NCc1ccc(Br)cc1` [Compound 57.1] came in with an inhibition of 44%.

Molecule `O=S(=O)(Cl)CCCCCc1ccc(OCc2ccccc2)cc1` [Compound 12.4, 5-(4-Benzyloxy-phenyl)-pentanesulfonyl chloride] registered a melting point of 58 to 60 °C.

`O=S(=O)(Cl)CCCCCCCc1ccc(OCc2ccccc2)cc1` [Compound 12.1, 7-(4-Benzyloxy-phenyl)-heptanesulfonyl chloride]: the melting point lay in the range of 33 to 35 °C.
